The subject of series [1] is B16 melanoma. The experiment in a line: Antitumor activity in vivo, tumor growth. Set-up: species or system mouse. The following applies: BDF1 mice, i.p., CP 100 mg/kg days 2, 7, cPt 4 mg/kg days 2–9, 4 300 mg/kg days 2–9. The protocol:
(§1) Antitumor activity in vivo. The B16 mouse melanoma was used as a tumor model. The B16 melanoma tumor strain was induced in male BDF1 mice by subcutaneous inoculation of 0.2–0.5 mL of a suspension of tumor tissue in medium 199 at intervals of 12–16 days. For the experiments, BDF1 mice were inoculated with 0.3 mL of a suspension of tumor tissue diluted in a 0.9% NaCl solution at a ratio of 1:5 subcutaneously on the right side.
(§2) Compound 4 was dissolved in a 0.9% NaCl solution with 1% DMSO. […] Control animals were injected intraperitoneally with 1% DMSO in saline (0.9% NaCl) in the same volumes as the test compounds.
Tumor growth was monitored on days 0, 6, 8, 10, 13, 15, 17, and 20 by measuring the tumor size with a digital caliper. The mean tumor diameter was calculated using the formula:D = 3√a × b × c,(2) where a, b, and c are mutually perpendicular tumor diameters.

Series [2] concerns B16 melanoma. The experiment in a line: Antimetastatic activity in vivo, lung metastases. Further details: species or system mouse. The following applies: lungs, B16 melanoma, BDF1 mice, doses as in Table 5; for Number of Animals without Metastases: of 6 animals in the group. How it is done:
as §1, §2
And MNMcont. are the mean number of metastases in the experimental and control groups, respectively.

Another series concerns A-172. As to the kind of experiment: Cytotoxicity, MTT test. In kind it is cell-based, human. The protocol: (§3) Cell culture. A-172 (human glioblastoma cells), HepG2 (human hepatocellular carcinoma cells), M-HeLa (human cervical adenocarcinoma cells, M subclone), Vero (African green monkey kidney epithelial cells), and FetMSC (human embryonic mesenchymal stem cells) were purchased from the Russian Collection of Cell Cultures of Vertebrates (Institute of Cytology RAS, St. Petersburg, Russia). The U-251 MG cell line (human glioblastoma-astrocytoma) was purchased from the European Collection of Authenticated Cell Cultures (Salisbury, UK). All cells were grown at 37 °C in an atmosphere of 5% CO2. A-172 and Vero cells were cultured in DMEM medium (PanEco, Moscow, Russia). HepG2, HeLa, and U-251 MG cells were cultured in EMEM medium (PanEco). FetMSC cells were cultured in F12/DMEM medium (PanEco). All incubation media were supplemented with 10% fetal calf serum (BioWest, Nuaillé, France), 50 U/mL penicillin, and […] streptomycin (PanEco). Additionally, media for HeLa, HepG2, and U-251 MG cells were supplemented with 2 mM glutamine (PanEco) and 1% essential amino acids (PanEco), media for A-172 and Vero cells were supplemented with 4 mM glutamine, and the medium for FetMSC cells was supplemented with 3 mM glutamine. The medium for U-251 MG cells was additionally supplemented with 1 mM sodium pyruvate (PanEco).
(§4) Cytotoxicity studies. The cytotoxicity of the compounds was assessed using the MTT test. Cells were seeded into 96-well plates at varying concentrations of 5 × 10^4 cells/mL (A-172, Vero and HeLa), 7 × 10^4 cells/mL (HepG2 and U-251 MG), and 10 × 10^4 cells/mL (FetMSC). The studied compounds were added to the incubation medium 24 h after seeding at concentrations ranging from 7.8 μM to 500 μM. All compounds were dissolved in DMSO and diluted with the incubation medium to their final concentrations just before use. The incubation medium in wells was aspirated and replaced with medium containing the studied compounds. The final concentration of DMSO in all samples was 0.1%. Control samples were treated with 0.1% DMSO. After 72 h of exposure, 3-(4,5-dimethylthiazol-2-yl)-2,5-diphenyl-2H-tetrazolium bromide (MTT) (Dia-M, Moscow, Russia) was added to the incubation medium at a concentration of 0.5 mg/mL. The resulting MTT-formazan crystals were dissolved in DMSO. The optical density was measured at 570 nm with a background wavelength of 620 nm using a Spark 10M plate reader. IC50 values were determined using a median effect analysis from the dose–effect relationships.

A further series deals with HeLa. The experiment in a line: Cytotoxicity, MTT test. The following applies: 72 h of exposure. In kind it is cell-based, human. The protocol:
as §3, §4

A further series concerns HepG2. The experiment in a line: Cytotoxicity, MTT test. It is filed as cell-based, human. How it is done: as §3, §4
The next series has as its system Vero. The experiment in a line: Cytotoxicity, MTT test. The conditions noted are these: 72 h of exposure. It is filed as cell-based, African green monkey. The protocol: as §3, §4
Another series concerns the target T1, MMP-14 (Homo sapiens, UniProt P50281).
T1 construct: the BML- prefix points to Enzo Life Sciences, own knowledge BML-AK308
As to the kind of experiment: MMP activity assay, fluorogenic substrate (MMP Inhibitor Profiling Kit). In kind it is biochemical. The conditions noted are these: read-out: MMP-inhibiting activity IC50, MMP-14. The protocol: (§5) Determination of MMP activity. A fluorescently labeled substrate probe containing a fluorescent label and a fluorescence quencher, was utilized for this study. […] Enzyme activity was assessed using the MMP Inhibitor Profiling Kit (Product # BML-AK308, New York, NY, USA) according to the manufacturer’s recommendations. The nonspecific inhibitor NNGH was used as a positive control. The fluorescence of the fluorogenic substrate OmniMMP^TM RED was measured at wavelengths Ex/Em = 545/576 nm using a Spark 10M multimode plate reader (Tecan, Zurich, Switzerland). Reaction rates were expressed in relative fluorescence units (RFUs) per minute. The activity of MMPs in the presence of the studied compounds was determined as follows:Activity, % = (Vinh/Vcont) × 100,(1) where V is the initial reaction rate (RFUs/min) in the presence (Vinh) and absence (Vcont) of the studied compounds.
(§6) All tested compounds were dissolved in DMSO. The final concentration of DMSO in all samples was 0.1%. Control samples were treated with 0.1% DMSO.

The next series addresses T2, MMP-2 (Homo sapiens, UniProt P08253).
T2 construct: the BML- prefix points to Enzo Life Sciences, own knowledge BML-AK308
The series is described as above. It is filed as biochemical. The following applies: read-out: MMP-inhibiting activity IC50, MMP-2. How it is done:
as §5, §6

The next series addresses T3, MMP-3 (Homo sapiens, UniProt P08254).
T3 construct: the BML- prefix points to Enzo Life Sciences, own knowledge BML-AK308
The description is as above. It is filed as biochemical. The following applies: read-out: MMP-inhibiting activity IC50, MMP-3. How it is done: as §5, §6

In the next series the target is T4, MMP-9 (Homo sapiens, UniProt P14780).
T4 construct: the BML- prefix points to Enzo Life Sciences, own knowledge BML-AK308
T4 sequence (P14780 107-444 limits assumed): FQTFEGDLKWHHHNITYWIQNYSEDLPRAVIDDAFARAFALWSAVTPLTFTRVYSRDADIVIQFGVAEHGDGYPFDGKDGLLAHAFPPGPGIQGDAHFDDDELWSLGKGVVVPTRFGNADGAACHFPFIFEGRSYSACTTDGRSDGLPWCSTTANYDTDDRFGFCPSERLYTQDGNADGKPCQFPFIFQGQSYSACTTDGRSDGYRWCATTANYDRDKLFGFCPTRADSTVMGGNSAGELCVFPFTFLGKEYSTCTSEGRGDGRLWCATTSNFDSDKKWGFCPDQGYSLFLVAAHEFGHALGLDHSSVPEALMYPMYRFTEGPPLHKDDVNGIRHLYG
Described as above. In kind it is biochemical. The conditions noted are these: read-out: MMP-inhibiting activity IC50, MMP-9. The protocol: as §5, §6

The test system of another series is U-251 MG. The experiment in a line: Cytotoxicity, MTT test. The conditions noted are these: Homo sapiens, 72 h of exposure. In kind it is cell-based. The protocol: as §3, §4
A further series concerns FetMSC. As to the kind of experiment: Cytotoxicity, MTT test. The following applies: Homo sapiens; 72 h of exposure, MTT. In kind it is cell-based, human. How it is done: as §3, §4
Series [3] is described as follows: Cytotoxicity, MTT test, statements on all cell lines studied. It is filed as cell-based. The following applies: human, African green monkey, 72 h of exposure, summary over cell lines, read-out: cytotoxicity IC50, cells in general. How it is done:
as §3, §4

Series [4] deals with pancreatic carcinoma cells CD18. Further details: method as in PMID 24022491. The conditions noted are these: 5 μM, 24 h of exposure; cited from earlier work.
Series [5] has as its system pancreatic carcinoma cells MiaPaCa2. Further details: method as in PMID 24022491. The conditions noted are these: 5 μM, 24 h of exposure; cited from earlier work.
The test system of series [6] is CAC-1 cells (human cervical adenocarcinoma). Further details: method as in PMID 11925127. The following applies: 72 h of exposure, cited from earlier work.
In series [7] the test system is hamster pancreatic cancer cell line PGHAM-1. Further details: method as in PMID 11291083. The conditions noted are these: 72 h of exposure, cited from earlier work.
Where [8] appears, read: Homo sapiens, A 172, 72 h of exposure.
[9] abbreviates: Homo sapiens, HepG2, 72 h of exposure.

Molecules are shown by their SMILES.

T3 sequence (P08254 100-272 limits assumed): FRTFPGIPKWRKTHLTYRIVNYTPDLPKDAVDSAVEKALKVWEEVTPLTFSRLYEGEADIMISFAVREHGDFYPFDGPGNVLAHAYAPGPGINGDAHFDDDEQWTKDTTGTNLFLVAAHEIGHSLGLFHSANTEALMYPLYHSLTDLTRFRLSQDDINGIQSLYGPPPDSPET
T2 sequence (P08253 110-446 limits assumed): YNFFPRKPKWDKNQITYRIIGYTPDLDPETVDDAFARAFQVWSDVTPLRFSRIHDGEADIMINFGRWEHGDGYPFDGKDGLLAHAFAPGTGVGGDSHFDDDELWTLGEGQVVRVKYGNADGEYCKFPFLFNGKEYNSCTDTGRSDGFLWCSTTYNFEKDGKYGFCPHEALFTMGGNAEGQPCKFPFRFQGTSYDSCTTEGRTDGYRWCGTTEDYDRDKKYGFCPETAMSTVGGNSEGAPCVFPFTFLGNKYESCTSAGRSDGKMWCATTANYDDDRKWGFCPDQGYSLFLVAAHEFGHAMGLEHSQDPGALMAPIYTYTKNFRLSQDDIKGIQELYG

As for `O=P1(N(CCCl)CCCl)NCCCO1` (stereo not drawn) [CP, cyclophosphamide], in the series on B16 melanoma [1], the “Tumor Growth Inhibition, % Day 10” value is on record as 52.94%; the “Tumor Growth Inhibition, % Day 13” value amounted to 38.10%; the “Tumor Growth Inhibition, % Day 15” value is recorded as 43.20%; the “Tumor Growth Inhibition, % Day 17” value worked out at 27.43%. The “Tumor Growth Inhibition, % Day 20” value in the series with B16 melanoma [1] stood at 14.02%. In the series with B16 melanoma [2], the “% Inhibition of Metastases” value was determined as 39.3%; the “Mean Number of Metastases per Mouse” value came to 7.1 ± 2.2; the “Metastasis Rate, %” value is on record as 100%; the “Number of Animals without Metastases” value is reported as 0.

Regarding `N.N.[Cl][Pt][Cl]` [Cisplatin, cisplatin], in the series with A-172 (72 h of exposure), it took 8.46 ± 0.92 µM to reach half-maximal inhibition (IC50). In the series with HeLa, this compound had an IC50 of 11.7 ± 2.41 µM. In the series on HepG2 (72 h of exposure), this compound gave an IC50 of 13.2 ± 1.62 µM. Further, in the series on Vero, the midpoint of inhibition, the IC50, lay at 10.7 ± 1.45 µM. For the same compound, in the series with B16 melanoma [1], the “Tumor Growth Inhibition, % Day 10” value is 76.47%; the “Tumor Growth Inhibition, % Day 13” value is given as 61.11%; the “Tumor Growth Inhibition, % Day 15” value stood at 52.07%; the “Tumor Growth Inhibition, % Day 17” value came out at 32.00%. The “Tumor Growth Inhibition, % Day 20” value in the series with B16 melanoma [1] was found to be 9.54%. Moreover, in the series on B16 melanoma [2], the “% Inhibition of Metastases” value is listed as 71.9%; the “Mean Number of Metastases per Mouse” value stood at 3.3 ± 2.4; the “Metastasis Rate, %” value is on record as 83.3%; the “Number of Animals without Metastases” value came to 1.

Regarding `O=C(CCC(=O)NNC(=O)c1ccccc1[N+](=O)[O-])NO` [Compound 1, N-hydroxy-4-[2-(2-nitrobenzoyl)hydrazinyl]-4-oxobutanamide], the IC50 on MMP-14 is over 10 µM; at MMP-2 it was over 10 µM; on MMP-3, over 10 µM; on MMP-9 it was over 10 µM; in the series with U-251 MG, over 500 µM; in the series with A-172 (setting [8]), over 500 µM. In addition, the concentration for half-maximal inhibition (IC50) was over 500 µM in the series on FetMSC; 377 ± 25.2 µM in the series on HeLa (Homo sapiens, HeLa); 393 ± 26.2 µM in the series on HepG2 (setting [9]); over 500 µM in the series with Vero (Chlorocebus sabaeus, Vero). In addition, in series [3], the IC50 at 72 h was over 100 µM.

Turning to `O=C(CCC(=O)NNC(=O)c1cccc([N+](=O)[O-])c1)NO` [Compound 2, N-hydroxy-4-[2-(3-nitrobenzoyl)hydrazinyl]-4-oxobutanamide], the IC50 on MMP-14 is over 10 µM; at MMP-2, over 10 µM; on MMP-3, over 10 µM; on MMP-9 it was over 10 µM; in the series with U-251 MG it was over 500 µM; in the series with A-172 (setting [8]), over 500 µM. Moreover, the IC50 in the series on FetMSC was over 500 µM; with HeLa (Homo sapiens, HeLa) it was 185 ± 15.3 µM; in the series on HepG2 (setting [9]) it was 213 ± 15.3 µM; with Vero (Chlorocebus sabaeus, Vero) it was over 500 µM. The IC50 at 72 h in series [3] is over 100 µM.

As to `O=C(CCC(=O)NNC(=O)c1ccc([N+](=O)[O-])cc1)NO` [Compound 3, N-hydroxy-4-[2-(4-nitrobenzoyl)hydrazinyl]-4-oxobutanamide], the IC50 is over 10 µM on MMP-14; over 10 µM on MMP-2; over 10 µM at MMP-3; over 10 µM at MMP-9; over 500 µM in the series with U-251 MG; over 500 µM in the series on A-172 (setting [8]). Besides, the half-inhibitory concentration (IC50) was over 500 µM with FetMSC; 237 ± 14.2 µM in the series with HeLa (Homo sapiens, HeLa); 252 ± 15.8 µM in the series on HepG2 (setting [9]); over 500 µM with Vero (Chlorocebus sabaeus, Vero). Also, the IC50 at 72 h in series [3] was over 100 µM.

On to `COc1ccccc1C(=O)NNC(=O)CCC(=O)NO` [Compound 5, N-hydroxy-4-[2-(2-methoxybenzoyl)hydrazinyl]-4-oxobutanamide], for which the IC50 is over 10 µM at MMP-14; over 10 µM on MMP-2; over 10 µM on MMP-3; over 10 µM at MMP-9; over 500 µM with U-251 MG; over 500 µM in the series with A-172 (setting [8]). Besides, the IC50 was over 500 µM in the series on FetMSC; 194 ± 13.4 µM in the series on HeLa (Homo sapiens, HeLa); 221 ± 12.6 µM with HepG2 (setting [9]); over 500 µM in the series with Vero (Chlorocebus sabaeus, Vero). For the same compound, the IC50 at 72 h in [3] was over 100 µM.

Take `CNC(=O)[C@@H](NC(=O)[C@H](CCCc1ccccc1)[C@H](C)N(O)C=O)C(C)(C)C` [GI254023X]: the toxicity to cells entry in [4] and in series [5] was “toxic” throughout.

With `O=C(O)[C@@H](Cc1c[nH]c2ccccc12)NS(=O)(=O)c1ccc(-c2nnn(-c3ccccc3)n2)cc1` [MMI-166], the “cytotoxicity IC50” value in series [6] is on record as “higher than 50 μg/mL”; in series [7], “higher than 100 μg/mL”. Moreover, the values for the IC50 in series [6] (read-out: cytotoxicity IC50) and in [7] (read-out: cytotoxicity IC50) were over 102 µM and over 205 µM, respectively.
